The values below come from patent US20250368932A1, “SYSTEM FOR MIMICKING CELLULAR MICROENVIRONMENT AND METHOD FOR EVALUATING CELL DEVELOPMENT OR DRUG THERAPY EFFECTIVENESS USING THE SAME” (Anivance AI Corporation, priority 2024, published 2025).

In test [1] the test system is Non-Small Cell Lung Cancer Tumor Spheroids (co-cultured cell spheroids, A549 / HFL-1). Nature of the test: Morphology and area of tumor spheroids after drug administration on the chip (bright-field, quantified). The class given is cell-based, human. Here is the method: In some embodiments, the A549 cell line of the present disclosure is purchased from ATCC, and is commonly used for developing lung cancer drugs and drug delivery experiments. The A549 cells are cultured in F12K cell culture medium (10-025, Corning) supplemented with 10% fetal bovine serum (FBS) (35-076-EV, Corning). The cells are taken out from the liquid nitrogen tank and thawed in a […] water bath. The cell suspension in the cryovial is extracted and mixed with 1 mL of cell culture medium, followed by adding it to a T-75 cell culture flask containing 9 mL of cell culture medium for uniform mixing and culture. When cell confluence reaches 80%, cell passaging is carried out. Cells are first rinsed with DPBS and then detached from the T-75 cell culture flask using trypsin. The detached A549 cells are transferred to a 15 mL centrifuge tube, and centrifuged at 1000 rpm for 5 minutes at 24° C. After centrifugation, the cells are concentrated at the bottom of the centrifuge tube, and the supernatant is aspirated. Subsequently, 500 μL of cell culture medium is added, mixed thoroughly, and the cells are resuspended. A 20 μL cell suspension is then withdrawn, and the cell count is determined using an automatic cell counter, which is used to estimate the total number of cells in the centrifuge tube. The estimated number of cells is then seeded back into the T-75 cell culture flask.
In some embodiments, the HFL-1 cell line of the present disclosure is purchased from BCRC, and is commonly used for co-culture and cytotoxicity studies. The cells are cultured in F12K cell culture medium (10-025, Corning) supplemented with 10% fetal bovine serum (FBS) (35-076-EV, Corning). The cells are removed from the liquid nitrogen tank and thawed in a 37° C. water bath. […] A 20 μL cell suspension is then withdrawn, and the cell count is determined using an automatic cell counter to estimate the total number of cells in the centrifuge tube. […]

Test [2] has as its system cell spheroids (A549). Nature of the test: Effect of TGF-β on spreading and metastasis of cell spheroids cultured on the hydrogel. It is filed as cell-based, human. As to the method:
In some embodiments, the present disclosure uses Ultra-Low Attachment (ULA) 96-well plates (7007, Corning) to conduct in vitro 3D cell spheroid cultures. The ULA 96-well plates feature an extremely low attachment surface that minimizes cell adhesion and protein absorption, facilitating the formation of cell spheroids. In each well of the ULA 96-well plate, 1000 to 8000 cells (with each well containing 200 μL of cell culture medium) are added, and the morphological changes of the cells are observed. After four days of cell seeding, compact cell spheroids are formed.
In some embodiments, before seeding cell spheroids, the chip is irradiated with ultraviolet (UV) light for 30 minutes and washed with filtered 75% alcohol, 95% alcohol, and deionized water, respectively. […]
In some embodiments, Image-J software is used to perform quantitative analysis of the cell spheroid spreading area. […] The spreading area of cell spheroids is then quantitatively analyzed.
After culturing on the hydrogel for 48 hours, the development of the cell spheroids is observed using a fluorescence microscope. […] The original cell spheroids display red fluorescence indicating the expression of vimentin. […] “Top view” and “side view” refer to the respective perspectives, and the green fluorescence labels F-actin.

`COc1cccc2c1C(=O)c1c(O)c3c(c(O)c1C2=O)C[C@@](O)(C(=O)CO)C[C@@H]3O[C@H]1C[C@H](N)[C@H](O)[C@H](C)O1` [Dox]: the “shape of cell spheroids after drug treatment” value in test [1] (Dox 0, 40, 90 and 320 μM, 48 hours, on chip, FIG. 10A/10B) was “maintain their original shape”. Besides, in test [1] (Dox 0, 40, 90 and 320 μM, FIG. 10C/10D), the “area of tumor spheroids (quantitative analysis)” value is given as “no significant decrease”. Besides, the “therapeutic effect on static tumor spheroids (summary)” value in test [1] (static tumor spheroids, single drug) is reported as “no therapeutic effect”.
With transforming growth factor-beta [TGF-β], in test [2] (20 ng/ml TGF-β, 48 hours on hydrogel, versus untreated, FIG. 3B/3C), the “outward expansion and migration of cells in the cell spheroids (spreading area)” value was “increased outward expansion and migration range”. Further, the “structure of cell spheroids” value in test [2] (prolonged TGF-β treatment, FIG. 3D) was “disaggregate and expand outward”.
